# Assay results from patent publication US20110224136A1, “INHIBITORS OF DIACYLGLYCEROL ACYLTRANSFERASE” (priority 2008, published 2011).
# Biological target: T1, human DGAT1 enzyme (Homo sapiens, UniProt O75907)
# T1 construct: made in house; host or cells: Sf9 insect cells (microsomes)
# T1 sequence (O75907 1-488): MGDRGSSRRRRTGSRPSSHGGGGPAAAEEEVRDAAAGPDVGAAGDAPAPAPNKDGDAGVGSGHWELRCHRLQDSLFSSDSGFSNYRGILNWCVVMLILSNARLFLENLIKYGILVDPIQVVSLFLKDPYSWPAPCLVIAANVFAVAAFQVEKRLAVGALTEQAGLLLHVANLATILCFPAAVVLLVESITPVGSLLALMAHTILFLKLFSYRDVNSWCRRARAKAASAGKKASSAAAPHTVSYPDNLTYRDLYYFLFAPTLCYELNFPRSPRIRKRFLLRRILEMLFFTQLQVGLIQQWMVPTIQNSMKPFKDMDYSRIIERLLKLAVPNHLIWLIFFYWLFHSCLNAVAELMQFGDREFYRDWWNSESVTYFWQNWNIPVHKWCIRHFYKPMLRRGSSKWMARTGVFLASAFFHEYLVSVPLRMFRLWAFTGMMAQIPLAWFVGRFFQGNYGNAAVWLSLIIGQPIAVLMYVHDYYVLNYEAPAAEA
# Experiment: in vitro DGAT1 inhibition assay (microsomes, [14C]-palmitoyl-CoA, scintillation proximity)
# Assay type: biochemical
# Conditions: human DGAT1 expressed in Sf9 insect cell microsomes; 2 hours at room temperature; read-out: hDGAT IC50
# Method: A useful assay to determine the DGAT inhibitory activity of the inventive compounds is described below:
# The in vitro assay to identify DGAT1 inhibitors uses human DGAT1 enzyme expressed in Sf9 insect cells prepared as microsomes. The reaction is initiated by the addition of the combined substrates 1,2-dioleoyl-sn-glycerol and [^14C]-palmitoyl-CoA and incubated with test compounds and microsomal membranes for 2 hours at room temperature. The assay is stopped by adding 0.5 mg wheat germ agglutinin beads in assay buffer with 1% Brij-35 and 1% 3-cholamidopropyldimethyl-ammonio-1-propane sulfonate. Plates are sealed with TopSeal and incubated for 18 hours to allow the radioactive triglyceride product to come into proximity with the bead. Plates are read on a TopCount instrument.
# Percent inhibition was calculated as the percent of (test compound inhibition minus non-specific binding) relative to (total binding minus non-specific binding). IC50 values were determined by curve fitting the data to a Sigmoidal dose-response in GraphPad Prism utilizing the following equation:
# Y=A+(B−A)/(1+10̂((Log IC50−X))),
# where A and B are the bottom and top of the curve (highest and lowest inhibition), respectively, and X is the logarithm of concentration.
row,Compound,IC50
1,"O=C(Nc1ccc(N2CCN(C(=O)Nc3ccccc3F)CC2)nc1)c1oc(N2CCC(c3cccc(F)c3)C2)nc1C(F)(F)F (stereo not drawn) [Compound 279, 2-(3-(3-fluorophenyl)pyrrolidin-1-yl)-N-(6-(4-(2-fluorophenylcarbamoyl)piperazin-1-yl)pyridin-3-yl)-4-(trifluoromethyl)oxazole-5-carboxamide]",11 to 100 nM
2,"CN(CC1(c2ccccc2)CC1)c1nc(C(F)(F)F)c(C(=O)Nc2ccc(N3CCN(C(=O)Nc4ccccc4F)CC3)nc2)o1 [Compound 317, N-(6-(4-(2-fluorophenylcarbamoyl)piperazin-1-yl)pyridin-3-yl)-2-(methyl((1-phenylcyclopropyl)methyl)amino)-4-(trifluoromethyl)oxazole-5-carboxamide]",11 to 100 nM
3,"O=C(Nc1ccc(N2CCN(C(=O)Nc3ccccc3F)CC2)nc1)c1oc(N2CCC(F)(c3ccccc3)CC2)nc1C(F)(F)F [Compound 325, N-(6-(4-(2-fluorophenylcarbamoyl)piperazin-1-yl)pyridin-3-yl)-2-(4-fluoro-4-phenylpiperidin-1-yl)-4-(trifluoromethyl)oxazole-5-carboxamide]",101 to 500 nM
4,"O=C(Nc1ccc(N2CCN(C(=O)Nc3ccccc3F)CC2)nc1)c1sc(CSc2ccccc2)nc1C(F)(F)F [Compound 253, N-(6-(4-(2-fluorophenylcarbamoyl)piperazin-1-yl)pyridin-3-yl)-2-(phenylthiomethyl)-4-(trifluoromethyl)thiazole-5-carboxamide]",11 to 100 nM
5,"O=C(Nc1ccc(N2CCN(C(=O)Nc3ccccc3F)CC2)nc1)c1sc(COc2ccccc2)nc1C(F)(F)F [Compound 252, N-(6-(4-(2-fluorophenylcarbamoyl)piperazin-1-yl)pyridin-3-yl)-2-(phenoxymethyl)-4-(trifluoromethyl)thiazole-5-carboxamide]",101 to 500 nM
6,"O=C(Nc1ccc(N2CCN(C(=O)[C@H]3CC[C@H](C(=O)O)CC3)CC2)nc1)c1oc(N2CCC(c3ccccc3)CC2)nc1C(F)(F)F [Compound 296, trans-4-(4-(5-(2-(4-phenylpiperidin-1-yl)-4-(trifluoromethyl)oxazole-5-carboxamido)pyridin-2-yl)piperazine-1-carbonyl)cyclohexanecarboxylic acid]",11 to 100 nM
7,"CC1CCCN(c2nc(C(F)(F)F)c(C(=O)Nc3ccc(-c4ccc(C(=O)NCCC(=O)O)cc4)cc3)o2)C1 (stereo not drawn) [Compound 328, 3-(4′-(2-(3-methylpiperidin-1-yl)-4-(trifluoromethyl)oxazole-5-carboxamido)biphenyl-4-ylcarboxamido)propanoic acid]",101 to 500 nM
8,"O=C(Nc1ccc(N[C@H]2CCN(C(=O)Nc3ccccc3F)C2)nc1)c1sc(N2CCC(c3ccccc3)CC2)nc1C(F)(F)F [Compound 259, (S)—N-(6-(1-(2-fluorophenylcarbamoyl)pyrrolidin-3-ylamino)pyridin-3-yl)-2-(4-phenylpiperidin-1-yl)-4-(trifluoromethyl)thiazole-5-carboxamide]",101 to 500 nM
9,"O=C(CN1CCN(c2ccc(NC(=O)c3oc(N4CCC(c5ccccc5)CC4)nc3C(F)(F)F)cn2)CC1)c1ccccc1F [Compound 289, N-(6-(4-(2-(2-fluorophenyl)-2-oxoethyl)piperazin-1-yl)pyridin-3-yl)-2-(4-phenylpiperidin-1-yl)-4-(trifluoromethyl)oxazole-5-carboxamide]",101 to 500 nM
10,"O=C(Nc1ccc(N2CCN(C(=O)c3ccccc3F)CC2)nc1)c1oc(N2CCC(c3ccccc3)CC2)nc1C(F)(F)F [Compound 284, N-(6-(4-(2-fluorobenzoyl)piperazin-1-yl)pyridin-3-yl)-2-(4-phenylpiperidin-1-yl)-4-(trifluoromethyl)oxazole-5-carboxamide]",101 to 500 nM
11,"Cc1ccccc1NC(=O)c1ccc(-c2ccc(NC(=O)c3oc(N4CCCC(C)C4)nc3C(F)(F)F)nc2)cc1 (stereo not drawn) [Compound 227, 2-(3-methylpiperidin-1-yl)-N-(5-(4-(o-tolylcarbamoyl)phenyl)pyridin-2-yl)-4-(trifluoromethyl)oxazole-5-carboxamide]",11 to 100 nM
12,"CC1CCCN(c2nc(C(F)(F)F)c(C(=O)Nc3ccc(N4CCN(C(=O)[C@H]5CC[C@H](C(=O)O)CC5)CC4)nc3)o2)C1 (stereo partly drawn) [Compound 341, trans-4-[[4-[5-[[[2-(3-methyl-1-piperidinyl)-4-(trifluoromethyl)-5-oxazolyl]carbonyl]amino]-2-pyridinyl]-1-piperazinyl]carbonyl]cyclohexanecarboxylic acid]",101 to 500 nM
13,"O=C(Nc1ccc(N2CCN(C(=O)Nc3ccccc3F)CC2)nc1)c1oc(N2CCC(c3ccc(Cl)cc3)CC2)nc1C(F)(F)F [Compound 273, 2-(4-(4-chlorophenyl)piperidin-1-yl)-N-(6-(4-(2-fluorophenylcarbamoyl)piperazin-1-yl)pyridin-3-yl)-4-(trifluoromethyl)oxazole-5-carboxamide]",11 to 100 nM
14,"O=C(Nc1ccc(N2CCN(C(=O)Nc3ccccc3F)CC2)nc1)c1oc(N2CC[C@H](c3ccccc3)C2)nc1C(F)(F)F [Compound 270, (R)—N-(6-(4-(2-fluorophenylcarbamoyl)piperazin-1-yl)pyridin-3-yl)-2-(3-phenylpyrrolidin-1-yl)-4-(trifluoromethyl)oxazole-5-carboxamide]",11 to 100 nM
15,"Cc1ccccc1NC(=O)c1ccc(-c2ccc(NC(=O)c3oc(N4CCCC(C)C4)nc3C(F)(F)F)cn2)cc1 (stereo not drawn) [Compound 333, 2-(3-methylpiperidin-1-yl)-N-(6-(4-(o-tolylcarbamoyl)phenyl)pyridin-3-yl)-4-(trifluoromethyl)oxazole-5-carboxamide]",11 to 100 nM
16,"O=C(O)c1ccccc1NC(=O)N1CCN(c2ccc(NC(=O)c3oc(N4CCC(c5ccccc5)CC4)nc3C(F)(F)F)cn2)CC1 [Compound 292, 2-(4-(5-(2-(4-phenylpiperidin-1-yl)-4-(trifluoromethyl)oxazole-5-carboxamido)pyridin-2-yl)piperazine-1-carboxamido)benzoic acid]",11 to 100 nM
17,"Cc1ccccc1NC(=O)c1ccc(-c2ccc(NC(=O)c3sc(CN(C)c4ccccc4)nc3C(F)(F)F)nc2)cc1 [Compound 250, 2-((methyl(phenyl)amino)methyl)-N-(5-(4-(o-tolylcarbamoyl)phenyl)pyridin-2-yl)-4-(trifluoromethyl)thiazole-5-carboxamide]",101 to 500 nM
18,"CC1CCCN(c2nc(C(F)(F)F)c(C(=O)Nc3ccc(N[C@H]4CCN(C(=O)c5ccccc5F)C4)nc3)o2)C1 (stereo partly drawn) [Compound 260, N-(6-((S)-1-(2-fluorobenzoyl)pyrrolidin-3-ylamino)pyridin-3-yl)-2-(3-methylpiperidin-1-yl)-4-(trifluoromethyl)oxazole-5-carboxamide]",101 to 500 nM
19,"O=C(Nc1ccc(N[C@H]2CCN(C(=O)Nc3ccccc3F)C2)nc1)c1oc(N2CCC(c3ccccc3)CC2)nc1C(F)(F)F [Compound 257, (S)—N-(6-(1-(2-fluorophenylcarbamoyl)pyrrolidin-3-ylamino)pyridin-3-yl)-2-(4-phenylpiperidin-1-yl)-4-(trifluoromethyl)oxazole-5-carboxamide]",101 to 500 nM
20,"O=C(O)C[C@H]1CC[C@H](c2ccc(NC(=O)c3oc(N4CCC(c5ccccc5)CC4)nc3C(F)(F)F)cc2)CC1 [Compound 216, 2-((1r,4r)-4-(4-(2-(4-phenylpiperidin-1-yl)-4-(trifluoromethyl)oxazole-5-carboxamido)phenyl)cyclohexyl)acetic acid]",101 to 500 nM
21,"O=C(Nc1cnc(N2CCN(C(=O)Nc3ccccc3F)CC2)nc1)c1oc(N2CCC(c3ccccc3)CC2)nc1C(F)(F)F [Compound 327, N-(2-(4-(2-fluorophenylcarbamoyl)piperazin-1-yl)pyrimidin-5-yl)-2-(4-phenylpiperidin-1-yl)-4-(trifluoromethyl)oxazole-5-carboxamide]",101 to 500 nM
22,"CC1CCCN(c2nc(C(F)(F)F)c(C(=O)Nc3ccc(N4CCN(C(=O)Nc5ccccc5C(=O)O)CC4)nc3)o2)C1 (stereo not drawn) [Compound 300, 2-(4-(5-(2-(3-methylpiperidin-1-yl)-4-(trifluoromethyl)oxazole-5-carboxamido)pyridin-2-yl)piperazine-1-carboxamido)benzoic acid]",11 to 100 nM
23,"O=C(Nc1ccc(N2CCN(C(=O)Nc3ccccc3F)CC2)nc1)c1oc(NC2CCN(Cc3ccccc3)C2)nc1C(F)(F)F (stereo not drawn) [Compound 307, 2-(1-benzylpyrrolidin-3-ylamino)-N-(6-(4-(2-fluorophenylcarbamoyl)piperazin-1-yl)pyridin-3-yl)-4-(trifluoromethyl)oxazole-5-carboxamide]",101 to 500 nM
24,"CC1CCCN(c2nc(C(F)(F)F)c(C(=O)Nc3ccc(N4CCN(C(=O)Nc5ccccc5F)CC4)cn3)o2)C1 (stereo not drawn) [Compound 236, N-(5-(4-(2-fluorophenylcarbamoyl)piperazin-1-yl)pyridin-2-yl)-2-(3-methylpiperidin-1-yl)-4-(trifluoromethyl)oxazole-5-carboxamide]",11 to 100 nM
